Earlier results on two compounds are cited in US20120282337A1, “Modified Release Formulation” (BOEHRINGER INGELHEIM INTERNATIONAL GMBH, priority 2006, published 2012).

Test in data set [1]: not given
This is another data set of the same source.

The conditions of data set [2]: in vivo.
Another data set addresses dopamine D2 receptor (Homo sapiens, UniProt P14416).

Structures can show the parent of a compound that is named as a salt.

dopamine D2 receptor, sequence (P14416 whole entry, species assumed): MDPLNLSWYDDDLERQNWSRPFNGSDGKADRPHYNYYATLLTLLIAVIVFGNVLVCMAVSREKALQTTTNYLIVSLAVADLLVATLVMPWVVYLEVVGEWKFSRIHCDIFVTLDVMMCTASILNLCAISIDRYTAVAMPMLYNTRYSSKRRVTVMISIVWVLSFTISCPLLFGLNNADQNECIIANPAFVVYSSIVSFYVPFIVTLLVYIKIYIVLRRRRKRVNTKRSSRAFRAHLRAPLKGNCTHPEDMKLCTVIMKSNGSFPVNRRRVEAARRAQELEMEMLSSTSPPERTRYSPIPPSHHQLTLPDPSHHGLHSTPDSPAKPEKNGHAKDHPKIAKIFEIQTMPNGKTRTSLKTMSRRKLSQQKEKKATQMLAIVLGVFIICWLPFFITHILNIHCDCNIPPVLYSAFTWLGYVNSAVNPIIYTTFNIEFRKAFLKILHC

`CCCN[C@H]1CCc2nc(N)sc2C1` [Pramipexole dihydrochloride monohydrate, pramipexole dihydrochloride monohydrate]: the “solubility in buffer media” value (between pH 2 and pH 7.4) was “above 10 mg/ml”. The Water solubility result (water) was “more than 20 mg/ml”.
Consider `CCCN[C@H]1CCc2nc(N)sc2C1` [Pramipexole, (S)-2-Amino-4,5,6,7-tetrahydro-6-(propylamino)benzothiazole], for which, in data set [1] (in solution), the stability in solution entry is given as “light sensitive”. Further, the “stability in the solid state” value in data set [1] (solid state) is on record as “very stable”. The kinetics entry in data set [2] was “linear kinetics”. Further, the “agonist type at dopamine D2 receptor” value at dopamine D2 receptor was “full agonist”.
